# Measured values taken from US20120309739A1, “AKT / PKB INHIBITORS” (ALMAC DISCOVERY LIMITED, priority 2009, published 2012).
# Where a name gives a salt, the structure may show the parent alone.
# Columns and labels:
# Type in all cases: biochemical
# AKT2 = target: T1, AKT2 (Homo sapiens, UniProt P31751); assay: AKT Kinase Assay (IMAP fluorescent polarisation) vs AKT2; settings: activated AKT2, FAM Crosstide substrate
# T1 construct: purchased SignalChem
# Procedure: (§1) Testing of the compounds was performed using an AKT Kinase Assay:
# (§2) Activated AKT isoforms 1, 2 and 3 were assayed utilising a 5′ FAM Crosstide (Seq. GRPRTSSFAEG-OH). The extent of kinase phosphorylation was determined by fluorescent polarisation using IMAP progressive binding reagent, which introduces binding beads which allow the reagent to specifically bind to phosphate residues via covalent co-ordination complex bonds.
# (§3) iMAP binding solution stops Crosstide/kinase interaction and specifically binds phosphorylated substrates. The degree of phosphorylation is determined by fluorescent polarisation (excitation 485 nm; emission 528 nm) or the reduction in speed of rotation of the excited substrate.
# (§4) The following materials were used in the assay: • a) Activated AKT isoforms (SignalChem.) dissolved in Complete Reaction buffer at a pre-determined concentration selected so that the assay was carried out in the linear range. • b) AKT substrate peptide: FAM Crosstide (R7110) Molecular Devices, diluted in complete reaction buffer. • c) iMAP Progressive Screening Express Kit (R8127) Molecular Devices • d) Complete Reaction Buffer containing 0.1% BSA, 10 mM Tris-HCl, 10 mM MgCl2, 0.05% NaN3 and 0.01% phosphate free BSA, 1 mM DTT • e) Progressive Binding Solution containing 75% Buffer A, 25% Buffer B and low volume Binding Reagent which contains the binding entity for the assay • f) ATP diluted in complete reaction buffer • g) Black polystyrene 384 well assay plates (Nunc). • h) Biotek Synergy 4 Hybrid Plate reader.
# (§5) 50 μl of test compound was dissolved in DMSO (Sigma Aldrich) and serially diluted in complete reaction buffer to give a fourteen point half log dose response and plated into 384 well black plates. The compound was incubated at room temperature with activated AKT isoform ([…]) at the pre-determined concentration, for 45 minutes.
# (§6) […] of ATP solution mixed with 2.5 μl of AKT substrate peptide (FAM Crosstide (R7110) Molecular Devices) were dispensed into each well and the plate centrifuged at 1000 rpm for 20 seconds to ensure homogenous mixing of reagents. The reaction mix was incubated in the dark for one hour at room temperature.
# (§7) The kinase reaction was stopped by the addition of Progressive Binding Solution and the mixture allowed to equilibrate for one hour in the dark, at room temperature.
# (§8) The fluorescent polarisation generated in each well was determined using a […] Synergy 4 Hybrid plate reader. In brief, each reaction solution was excited at 485 nm with the emission measured at 528 nm in both the parallel and perpendicular pathway.
# (§9) The polarisation value generated in each well was calculated by Gen5 software (Biotek) and the % inhibition of kinase activity compared to vehicle control was calculated via GraphPad Prism. IC50 values for each compound were calculated by non-linear regression analysis using Prism software.
# (§10) All plates were internally controlled by two methods. Firstly, by calculating the signal:noise ratio; based on kinase polarisation without inhibitor and polarisation generated by complete reaction buffer in the absence of activated kinase. Secondly by determining IC50 values generated by known inhibitors of the AKT isoforms.
# AKT1 = target: T2, AKT1 (Homo sapiens, UniProt P31749); assay: AKT Kinase Assay (IMAP fluorescent polarisation) vs AKT1; settings: activated AKT1, FAM Crosstide substrate
# T2 construct: purchased SignalChem
# T2 sequence (P31749 whole entry): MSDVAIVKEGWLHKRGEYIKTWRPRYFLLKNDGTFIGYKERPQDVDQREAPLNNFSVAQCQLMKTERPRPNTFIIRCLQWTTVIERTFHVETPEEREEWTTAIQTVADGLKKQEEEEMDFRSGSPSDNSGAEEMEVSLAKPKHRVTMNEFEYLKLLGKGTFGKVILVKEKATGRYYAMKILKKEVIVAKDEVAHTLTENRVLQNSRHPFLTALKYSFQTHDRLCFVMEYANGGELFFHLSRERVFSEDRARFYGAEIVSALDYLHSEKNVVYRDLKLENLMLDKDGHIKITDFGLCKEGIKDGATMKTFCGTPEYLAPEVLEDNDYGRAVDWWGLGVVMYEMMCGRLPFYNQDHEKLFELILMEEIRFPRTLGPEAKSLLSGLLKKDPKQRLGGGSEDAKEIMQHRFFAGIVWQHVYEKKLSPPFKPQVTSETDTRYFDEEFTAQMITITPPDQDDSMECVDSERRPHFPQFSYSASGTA
# Procedure: as §1, §2, §3, §4, §5, §6, §7, §8, §9, §10
# AKT3 = target: T3, AKT3 (Homo sapiens, UniProt Q9Y243); assay: AKT Kinase Assay (IMAP fluorescent polarisation) vs AKT3; settings: activated AKT3, FAM Crosstide substrate
# T3 construct: purchased SignalChem
# T3 sequence (Q9Y243 whole entry): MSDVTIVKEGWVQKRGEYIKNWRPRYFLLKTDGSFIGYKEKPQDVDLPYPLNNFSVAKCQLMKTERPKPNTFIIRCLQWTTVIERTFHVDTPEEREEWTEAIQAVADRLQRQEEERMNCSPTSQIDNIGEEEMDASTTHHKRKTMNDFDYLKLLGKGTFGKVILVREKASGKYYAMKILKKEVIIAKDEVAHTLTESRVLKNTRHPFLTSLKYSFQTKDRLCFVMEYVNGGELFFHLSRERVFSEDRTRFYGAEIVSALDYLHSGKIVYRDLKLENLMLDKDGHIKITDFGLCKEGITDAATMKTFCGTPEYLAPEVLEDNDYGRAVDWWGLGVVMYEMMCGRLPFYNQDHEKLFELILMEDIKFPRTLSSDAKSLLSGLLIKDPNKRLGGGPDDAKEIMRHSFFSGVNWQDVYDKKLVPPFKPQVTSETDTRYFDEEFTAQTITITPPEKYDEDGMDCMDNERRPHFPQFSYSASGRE
# Procedure: as §1, §2, §3, §4, §5, §6, §7, §8, §9, §10
# T1 sequence (P31751 whole entry): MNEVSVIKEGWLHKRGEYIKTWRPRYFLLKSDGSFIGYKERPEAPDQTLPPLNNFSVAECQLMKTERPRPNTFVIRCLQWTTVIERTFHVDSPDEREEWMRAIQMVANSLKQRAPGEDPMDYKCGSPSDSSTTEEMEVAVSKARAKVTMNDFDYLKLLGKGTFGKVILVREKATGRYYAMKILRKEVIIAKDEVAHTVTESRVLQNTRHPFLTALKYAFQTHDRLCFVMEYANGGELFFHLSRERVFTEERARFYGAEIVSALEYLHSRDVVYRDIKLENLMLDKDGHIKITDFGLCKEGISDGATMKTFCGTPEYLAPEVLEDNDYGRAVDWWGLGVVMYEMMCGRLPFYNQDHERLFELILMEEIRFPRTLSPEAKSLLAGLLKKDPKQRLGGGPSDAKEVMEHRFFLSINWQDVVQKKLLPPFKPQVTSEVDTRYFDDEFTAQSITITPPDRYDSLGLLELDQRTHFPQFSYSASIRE
IC50 (AKT2) [nM],IC50 (AKT1) [nM],IC50 (AKT3) [nM],SMILES
100 to 1000,100 to 1000,1000 to 10000,"Cn1c(N2CC(O)C2)nc2oc(-c3ccc(C4(N)CCC4)cc3)c(-c3ccccc3)c2c1=O [Example 61, 6-(4-(1-Aminocyclobutyl)phenyl)-2-(3-hydroxyazetidin-1-yl)-3-methyl-5-phenylfuro[2,3-d]pyrimidin-4(3H)-one]"
100 to 1000,100 to 1000,1000 to 10000,"C[C@@H](O)CNc1nc2oc(-c3ccc(C4(N)CCC4)cc3)c(-c3ccccc3)c2c(=O)n1C [Example 62, (R)-6-(4-(1-Aminocyclobutyl)phenyl)-2-((2-hydroxypropyl)amino)-3-methyl-5-phenylfuro[2,3-d]pyrimidin-4(3H)-one]"
100 to 1000,100 to 1000,> 10000,"Cn1c(NCC(N)=O)nc2oc(-c3ccc(C4(N)CCC4)cc3)c(-c3ccccc3)c2c1=O [Example 63, 2-((6-(4-(1-Aminocyclobutyl)phenyl)-3-methyl-4-oxo-5-phenyl-3,4-dihydrofuro[2,3-d]pyrimidin-2-yl)amino)acetamide]"
100 to 1000,≤ 100,1000 to 10000,"Cn1c(NCCO)nc2oc(-c3ccc(C4(N)CCC4)cc3)c(-c3ccccc3)c2c1=O [Example 64, 6-(4-(1-Aminocyclobutyl)phenyl)-2-(2-hydroxyethylamino)-3-methyl-5-phenylfuro[2,3-d]pyrimidin-4(3H)-one hydrochloride]"
100 to 1000,100 to 1000,1000 to 10000,"CNc1nc2oc(-c3ccc(C4(N)CCC4)cc3)c(-c3ccccc3)c2c(=O)n1C [Example 65, 6-(4-(1-Aminocyclobutyl)phenyl)-3-methyl-2-(methylamino)-5-phenylfuro[2,3-d]pyrimidin-4(3H)-one hydrochloride]"
100 to 1000,100 to 1000,> 10000,"Cn1cnc2oc(-c3ccc(C4(N)CCC4)cc3)c(-c3ccccc3)c2c1=O [Example 66, 6-(4-(1-Aminocyclobutyl)phenyl)-3-methyl-5-phenylfuro[2,3-d]pyrimidin-4(3H)-one]"
≤ 100,100 to 1000,100 to 1000,"COCCn1c(SC)nc2oc(-c3ccc(C4(N)CCC4)cc3)c(-c3ccccc3)c2c1=O [Example 67, 6-(4-(1-Aminocyclobutyl)phenyl)-3-(2-methoxyethyl)-2-(methylthio)-5-phenylfuro[2,3-d]pyrimidin-4(3H)-one, HCl]"
100 to 1000,100 to 1000,100 to 1000,"CNc1nc(SC)nc2oc(-c3ccc(C4(N)CCC4)cc3)c(-c3ccccc3)c12 [Example 68, 6-(4-(1-Aminocyclobutyl)phenyl)-N-methyl-2-(methylthio)-5-phenylfuro[2,3-d]pyrimidin-4-amine, HCl]"
100 to 1000,1000 to 10000,> 10000,"CNc1nc2oc(-c3ccc(C4(N)CCC4)cc3)c(-c3ccccc3)c2c(=O)n1CCOC [Example 69, 6-(4-(1-Aminocyclobutyl)phenyl)-3-(2-methoxyethyl)-2-(methylamino)-5-phenylfuro[2,3-d]pyrimidin-4(3H)-one, HCl]"
1000 to 10000,1000 to 10000,> 10000,"CN(C)c1nc(NCCO)nc2oc(-c3ccc(C4(N)CCC4)cc3)c(-c3ccccc3)c12 [Example 70, 2-(6-(4-(1-Aminocyclobutyl)phenyl)-4-(dimethylamino)-5-phenylfuro[2,3-d]pyrimidin-2-ylamino)ethanol, HCl]"
1000 to 10000,1000 to 10000,> 10000,"NC1(c2ccc(-c3oc4nc(NCCO)nc(N5CCOCC5)c4c3-c3ccccc3)cc2)CCC1 [Example 71, 2-((6-(4-(1-Aminocyclobutyl)phenyl)-4-morpholino-5-phenylfuro[2,3-d]pyrimidin-2-yl)amino)ethanol]"
100 to 1000,100 to 1000,1000 to 10000,"Cc1nc(NCCO)nc2oc(-c3ccc(C4(N)CCC4)cc3)c(-c3ccccc3)c12 [Example 72, 2-((6-(4-(1-Aminocyclobutyl)phenyl)-4-methyl-5-phenylfuro[2,3-d]pyrimidin-2-yl)amino)ethanol]"
100 to 1000,100 to 1000,> 10000,"NC1(c2ccc(-c3oc4nc(NCCO)nc(C(F)(F)F)c4c3-c3ccccc3)cc2)CCC1 [Example 73, 2-((6-(4-(1-Aminocyclobutyl)phenyl)-5-phenyl-4-(trifluoromethyl)furo[2,3-d]pyrimidin-2-yl)amino)ethanol]"
1000 to 10000,1000 to 10000,> 10000,"CSc1nc(C(F)(F)F)c2c(-c3ccccc3)c(-c3ccc(C4(N)CCC4)cc3)oc2n1 [Example 74, 1-(4-(2-(Methylthio)-5-phenyl-4-(trifluoromethyl)furo[2,3-d]pyrimidin-6-yl)phenyl)cyclobutanamine hydrochloride]"
1000 to 10000,1000 to 10000,> 10000,"CSc1nc(I)c2c(-c3ccccc3)c(-c3ccc(C4(N)CCC4)cc3)oc2n1 [Example 75, 1-(4-(4-Iodo-2-(methylthio)-5-phenylfuro[2,3-d]pyrimidin-6-yl)phenyl)cyclobutanamine]"
≤ 100,≤ 100,1000 to 10000,"NC1(c2ccc(-c3oc4nc(NCCO)[nH]c(=O)c4c3-c3ccccc3)cc2)CCC1 [Example 76, 6-(4-(1-Aminocyclobutyl)phenyl)-2-((2-hydroxyethyl)amino)-5-phenylfuro[2,3-d]pyrimidin-4(3H)-one]"
100 to 1000,100 to 1000,> 10000,"NC1(c2ccc(-c3oc4nc(NCCO)nc(NCCO)c4c3-c3ccccc3)cc2)CCC1 [Example 77, 2,2′-((6-(4-(1-Aminocyclobutyl)phenyl)-5-phenylfuro[2,3-d]pyrimidine-2,4-diyl)bis(azanediyl))diethanol]"
100 to 1000,≤ 100,> 10000,"COc1ncnc2oc(-c3ccc(C4(N)CCC4)cc3)c(-c3ccccc3)c12 [Example 78, 1-(4-(4-Methoxy-5-phenylfuro[2,3-d]pyrimidin-6-yl)phenyl)cyclobutanamine]"
1000 to 10000,100 to 1000,> 10000,"CNc1nc(NCCO)nc2oc(-c3ccc(C4(N)CCC4)cc3)c(-c3ccccc3)c12 [Example 79, 2-(6-(4-(1-Aminocyclobutyl)phenyl)-4-(methylamino)-5-phenylfuro[2,3-d]pyrimidin-2-ylamino)ethanol, HCl]"
1000 to 10000,100 to 1000,> 10000,"COc1ncc(Br)c2oc(-c3ccc(C4(N)CCC4)cc3)c(-c3ccccc3)c12 [Example 80, 1-(4-(7-Bromo-4-methoxy-3-phenylfuro[3,2-c]pyridin-2-yl)phenyl)cyclobutanamine]"
1000 to 10000,100 to 1000,> 10000,"CCNc1nc(NCCO)nc2oc(-c3ccc(C4(N)CCC4)cc3)c(-c3ccccc3)c12 [Example 81, 2-(6-(4-(1-Aminocyclobutyl)phenyl)-4-(ethylamino)-5-phenylfuro[2,3-d]pyrimidin-2-ylamino)ethanol, HCl]"
1000 to 10000,100 to 1000,1000 to 10000,"Cn1c(N2CCOCC2)nc2oc(-c3ccc(C4(N)CCC4)cc3)c(-c3ccccc3)c2c1=O [Example 82, 6-(4-(1-Aminocyclobutyl)phenyl)-3-methyl-2-morpholino-5-phenylfuro[2,3-d]pyrimidin-4(3H)-one]"
1000 to 10000,100 to 1000,1000 to 10000,"COCCNc1nc2oc(-c3ccc(C4(N)CCC4)cc3)c(-c3ccccc3)c2c(=O)n1C [Example 83, 6-(4-(1-Aminocyclobutyl)phenyl)-2-(2-methoxyethylamino)-3-methyl-5-phenylfuro[2,3-d]pyrimidin-4(3H)-one]"
100 to 1000,1000 to 10000,> 10000,"CN(CCO)c1nc2oc(-c3ccc(C4(N)CCC4)cc3)c(-c3ccccc3)c2c(=O)n1C [Example 84, 6-(4-(1-Aminocyclobutyl)phenyl)-2-((2-hydroxyethyl)(methyl)amino)-3-methyl-5-phenylfuro[2,3-d]pyrimidin-4(3H)-one]"
